Reference: patent publication US8138158B2, “Compositions and methods for therapy for diseases characterized by defective chloride transport” (Children's Hospital & Research Center at Oakland, priority 1997, dated 2012)

Experiments:
Assay type in all cases: cell-based, human
[1] = test system: Calu-3 monolayers; assay: Transepithelial short-circuit current (Isc) across unstimulated Calu-3 monolayers; settings: for transepithelial chloride currents in unstimulated tissue: compound added to mucosal (or serosal) perfusion, L-ascorbic acid 100 μM
Protocol: Currents were recorded with a serosal-to-mucosal chloride gradient at 0 mV and pulses were obtained at 2 mV.
Ascorbic acid (100 μM) was added as indicated. For comparison, ascorbic acid-stimulated chloride current was subsequently stimulated by the cAMP elevating agonist forskolin (20 μM, serosal). The CFTR activator genistein (20 mM) was then added to the mucosal perfusion as indicated. […] Currents were recorded with a serosal-to-mucosal chloride gradient at 0 mV and pulses were obtained at 2 mV.
100 μM ascorbic acid and forskolin (fsk, 20 μM, serosal) were added as indicated. The CFTR activator kaempferol (20 μM) was subsequently added, as indicated. […] Currents were recorded with a serosal-to-mucosal chloride gradient at 0 mV and pulses were obtained at 2 mV.
This experiment was performed using unstimulated tissue.
Kinetic analysis is depicted on the right panel and estimated half maximal stimulatory dose was 11.7 μM. […]
For comparison, ascorbic acid-stimulated chloride currents were stimulated by the cAMP elevating agonist forskolin (20 μM, serosal).
Stimulated C1 currents returned to baseline after 5-15 min.

[2] = test system: Calu-3 monolayers; assay: Transepithelial chloride currents in forskolin-prestimulated Calu-3 monolayers; settings: prestimulated with 10 μM forskolin
Protocol: FIGS. 13A-13C illustrate the effect of additional representative flavonoids and isoflavonoids on chloride current in epithelial cells. FIG. 13A is a graph showing the stimulation of transepithelial chloride currents by reservatrol (100 μM), flavanone (100 μM), flavone (200 μM), apigenin (20 μM), apigenin 7-O-neohesperidoside (30 μM), kaempferol (20 μM), fisetin (100 μM), quercetin (30 μM), rutin (30 μM), genistein (30 μM), daidzein (50 μM), biochanin A (100 μM) and prunetin (100 μM) in Calu-3 monolayers. Experiments were performed in the presence of 10 μM forskolin. Stimulated currents are plotted relative to forskolin stimulated increase (forskolin stimulated currents are 100%). FIG. 13B is a recording showing the effect of 7,4′-dihydroxyflavone on chloride current in unstimulated tissue. […] Increasing concentrations of 7,4′-dihydroxyflavone (as indicated in μM) were added to mucosal side and dose-dependently stimulated chloride currents. Currents were recorded with a serosal-to-mucosal chloride gradient at 0 mV and pulses were obtained at 2 mV. FIG. 13C is a recording illustrating the effect of trimethoxy-apigenin. […] Increasing concentrations of trimethoxy-apigenin (as indicated in μM) were added to mucosal side and dose-dependently stimulated chloride currents. Experiment was performed on unstimulated tissue. Currents were recorded with a serosal-to-mucosal chloride gradient at 0 mV and pulses were obtained at 2 mV.
Airway epithelial cells were prestimulated with 10 μM forskolin. The percent increase in chloride current was then determined following treatment with a series of polyphenolic compounds. FIG. 13A summarizes the stimulatory effect of these compounds.

[3] = test system: wildtype CFTR-corrected CF15 monolayers; assay: Short-circuit current across wildtype CFTR-corrected CF15 monolayers; settings: forskolin added on ascorbate-stimulated current
Protocol: Human airway cell culture. The human submucosal serous gland-like cell line Calu-3, the CF nasal epithelial cell line homozygous for ΔF508 CFTR (CF15) and human tracheal primary cultures (hTE) were cultured as described (Jefferson, D. M., Valentich, J. D., Marini, F. C., Grubman, S. A., Iannuzzi, M. C., Dorkin, H. L., Li, M., Klinger, K. W. & Welsh, M. J. (1990) Am. J. Physiol. 259, L496-L505. Sachs, L. A., Finkbeiner, W. E. & Widdicombe, J. H. (2003) In Vitro Cell Dev. Biol. Anim. 39, 56-62.). Wildtype CFTR-corrected CF15 cells were generated via adenovirus-mediated gene transfer. Growth media were nominally free of ascorbic acid (<10 μm, University Pathology Inc., Salt Lake City, Utah). For transepithelial measurements cells were grown on permeable filter inserts and used after 3 to 10 days.
(§1) Short-circuit current measurement. Calu-3 or CF15 cells were grown as monolayers, mounted in Ussing chambers and short-circuit current (ISC) was recorded as described (Illek, B. & Fischer, H. (1998) Am. J. Physiol. 275, L902-L910). At 20-50 second intervals, transepithelial voltage was clamped from zero to 2 mV and the transepithelial resistance (Rte) was calculated. A serosa-to-mucosa-directed Cl gradient was applied. Serosal Ussing chamber solution contained (in mM): 120 NaCl, 20 NaHCO3, 5 KHCO3, 1.2 NaH2PO4, 5.6 glucose, 2.5 CaCl2, 1.2 MgCl2. In mucosal Ussing chamber solutions, all Cl salts were exchanged for gluconate salts.
The CF15 cell line was used to determine whether ascorbate-stimulated Cl currents were solely mediated by the CFTR Cl conductance. The CF15 cell line is characterized by the absence of functional CFTR in the apical plasma membrane but the presence of other non-CFTR Cl conductances (Jefferson, D. M., Valentich, J. D., Marini, F. C., Grubman, S. A., Iannuzzi, M. C., Dorkin, H. L., Li, M., Klinger, K. W. & Welsh, M. J. (1990) Am. J. Physiol. 259, L496-L505). A concentration of L-ascorbic acid that lay within the upper plateau of the dose response curve (500 μm) was applied and ascorbate-stimulated Cl currents in CF15 vs. wildtype CFTR-corrected CF15 monolayers was compared (FIG. 23A). […] The defective response to L-ascorbic acid was reversed in wildtype CFTR-corrected CF15 epithelia such that ISC responded promptly to L-ascorbic acid (ΔISC=7.5±0.5 μA/cm^2, n=6). The ascorbate-stimulated current was further activated by the cAMP agonist forskolin and total stimulated ISC averaged 12.1±1.1 μA/cm^2 (FIG. 4B). The ascorbate-stimulated Cl current reached 60±15% of the forskolin-stimulated current in CFTR-corrected CF15 monolayers, which was close to the corresponding findings in Calu-3 monolayers (68%, see FIG. 21A). The absence of ascorbate-stimulated Cl currents in CF15 monolayers supports the notion that non-CFTR Cl conductances were not activated by L-ascorbic acid.
In this example, chloride currents stimulated by L-ascorbate or D-ascorbate were measured in CF15 versus. wildtype CFTR-corrected CF15 monolayers. A concentration of L-ascorbate (1 mM) or D-isoascorbate (300 μm) that lay within the upper plateau of the dose-response curve was applied to cells and the resulting chloride currents stimulated in CF15 versus wildtype CFTR-corrected CF15 monolayers were measured (FIG. 25 A-H). All experiments were performed in the presence of the sodium channel blocker amiloride. […]

[4] = test system: Calu-3 airway epithelia; assay: Short-circuit current (transepithelial Cl secretion) across Calu-3 airway epithelia, Examples 12-13
Protocol: as §1
Vitamin C activation of CFTR-mediated Cl secretion was studied in Calu-3 cells grown as epithelial monolayers (FIG. 21A). Exposure of the apical membrane to maximal concentrations of L-ascorbic acid stimulated transepithelial Cl currents (ISC) in a sustained fashion to 96±11 μA/cm^2 (n=22). Subsequent addition of forskolin further increased ISC to 141±33 μA/cm^2 (n=9, p=0.029). On average, Cl secretion was stimulated by ascorbate to 68% of the currents elicited by forskolin. The Cl channel blocker diphenylcarboxylate (DPC, 4 mM) was added as a measure for the transcellular Cl current decreasing ISC to 30±4 μA/cm^2. When Cl secretion was first stimulated with forskolin (to 106±23 μA/cm^2, n=4) ascorbate had no significant effect on Ise (at 100 μM: ΔICl=−1.5±3.5 μA/cm^2, n=4, not different from zero, one-sample t test). Half-maximal stimulatory constant averaged 36.5±2.9 μm as determined from transepithelial dose-response experiments.
Furthermore, the response to ascorbate in Na-containing medium was blunted in the presence of phloretin, a known inhibitor of the sodium-dependent vitamin C transporters SVCT1 and SVCT2 (Tsukaguchi, H., Tokui, T., Mackenzie, B., Berger, U. V., Chen, X. Z., Wang, Y., Brubaker, R. F. & Hediger, M. A. (1999) Nature 399, 70-75). […] Molecular expression of SVCT1 and SVCT2 transcripts in Calu-3 cells was verified using RT-PCR and DNA sequencing analysis. For comparison, human ciliated tracheal epithelial cultures (hTE) and a nasal cystic fibrosis airway cell line (CF15) were included. […] The recombinantly expressed SVCT2-EGFP fusion protein was targeted exclusively to the apical membrane pole of CF15 epithelia.

[5] = dehydroascorbic acid 10, 100 or 300 μM

O=c1cc(-c2ccc(O)cc2)oc2cc(O)ccc12 [7,4′-Dihydroxyflavone]
transepithelial chloride currents in unstimulated tissue [1, 5]: dose-dependently stimulated transepithelial C1 currents

C[C@@H]1O[C@@H](O[C@H]2[C@H](Oc3cc(O)c4c(=O)cc(-c5ccc(O)cc5)oc4c3)O[C@H](CO)[C@@H](O)[C@@H]2O)[C@H](O)[C@H](O)[C@H]1O [apigenin 7-O-neohesperidoside]
chloride currents further stimulated to (forskolin stimulated currents are 100%) ([2]; compound at 30 μM): 155%

O=c1c(-c2ccc(O)cc2)coc2cc(O)ccc12 [daidzein]
chloride currents further stimulated to (forskolin stimulated currents are 100%) ([2]; compound at 50 μM): 162%

O=C1O[C@H](C(O)CO)C(=O)C1=O (stereo partly drawn) [dehydroascorbic acid, L-threo-2,3-Hexodiulosonic acid γ-lactone]
transepithelial chloride currents in unstimulated tissue [1, 5]: effectively stimulated transepithelial chloride currents | stimulated Cl currents returned to baseline after [1, 5]: 5 to 15 min

O=C1CC(c2ccccc2)Oc2ccccc21 (stereo not drawn) [flavanone]
chloride currents further stimulated to (forskolin stimulated currents are 100%) ([2]; compound at 100 μM): 140%

O=c1cc(-c2ccccc2)oc2ccccc12 [flavone]
chloride currents further stimulated to (forskolin stimulated currents are 100%) ([2]; compound at 200 μM): 128%

C=C[C@@]1(C)CC(=O)[C@]2(O)[C@@]3(C)[C@@H](O)CCC(C)(C)[C@@H]3[C@H](O)[C@H](OC(C)=O)[C@@]2(C)O1 [forskolin, reference compound]
total stimulated ISC [3]: 12.1±1.1 μA/cm^2 | Cl secretion first stimulated with forskolin to ([4]; forskolin first, n=4): 106±23 μA/cm^2 | ISC further increased to ([4]; subsequent addition of forskolin after L-ascorbic acid, n=9): 141±33 μA/cm^2

O=C(CCc1ccc(O)cc1)c1c(O)cc(O)cc1O [phloretin, reference compound]
response to ascorbate in presence of SVCT inhibitor ([4]; Na-containing medium, pre-treatment with 200 μM phloretin): blunted

COc1cc(O)c2c(=O)c(-c3ccc(O)cc3)coc2c1 [prunetin]
chloride currents further stimulated to (forskolin stimulated currents are 100%) ([2]; compound at 100 μM): 161%

Oc1ccc(/C=C/c2cc(O)cc(O)c2)cc1 [reservatrol, trans-3,5,4′-trihydroxystilbene]
transepithelial chloride currents in unstimulated tissue [1, 5]: dose-dependently stimulated transepithelial chloride currents | chloride currents further stimulated to (forskolin stimulated currents are 100%) ([2]; compound at 100 μM): 135%

C[C@@H]1O[C@@H](OC[C@H]2O[C@@H](Oc3c(-c4ccc(O)c(O)c4)oc4cc(O)cc(O)c4c3=O)[C@H](O)[C@@H](O)[C@@H]2O)[C@H](O)[C@H](O)[C@H]1O [rutin]
chloride currents further stimulated to (forskolin stimulated currents are 100%) ([2]; compound at 30 μM): 149%

COc1ccc(-c2cc(=O)c3c(OC)cc(OC)cc3o2)cc1 [trimethoxy-apigenin]
transepithelial chloride currents in unstimulated tissue [1, 5]: dose-dependently stimulated transepithelial C1 currents | EC50 ([1]; unstimulated tissue, mucosal addition, kinetic analysis, read-out: estimated half maximal stimulatory dose): 11.7 µM

fisetin
chloride currents further stimulated to (forskolin stimulated currents are 100%) ([2]; compound at 100 μM): 108%
